Experimental findings from ChEMBL document CHEMBL1140275, “Discovery of a novel and potent series of dianilinopyrimidineurea and urea isostere inhibitors of VEGFR2 tyrosine kinase” (Bioorg Med Chem Lett, 2005) are described below.

One may read the IC50 as the point on the concentration scale where inhibition reaches its midpoint. Higher therefore signals weaker potency.

One test concerns HUVEC. Briefly: Inhibitory concentration against human umbilical vein endothelial cells (HUVECs) induced by VEGF. It is filed as functional, cell-based.
Test [1] has as its target Vascular endothelial growth factor receptor 2 (Homo sapiens, UniProt P35968). Kind of test: Inhibitory concentration against human VEGFR2 kinase.

SMILES strings stand for the structures.

Vascular endothelial growth factor receptor 2, sequence (P35968 whole entry): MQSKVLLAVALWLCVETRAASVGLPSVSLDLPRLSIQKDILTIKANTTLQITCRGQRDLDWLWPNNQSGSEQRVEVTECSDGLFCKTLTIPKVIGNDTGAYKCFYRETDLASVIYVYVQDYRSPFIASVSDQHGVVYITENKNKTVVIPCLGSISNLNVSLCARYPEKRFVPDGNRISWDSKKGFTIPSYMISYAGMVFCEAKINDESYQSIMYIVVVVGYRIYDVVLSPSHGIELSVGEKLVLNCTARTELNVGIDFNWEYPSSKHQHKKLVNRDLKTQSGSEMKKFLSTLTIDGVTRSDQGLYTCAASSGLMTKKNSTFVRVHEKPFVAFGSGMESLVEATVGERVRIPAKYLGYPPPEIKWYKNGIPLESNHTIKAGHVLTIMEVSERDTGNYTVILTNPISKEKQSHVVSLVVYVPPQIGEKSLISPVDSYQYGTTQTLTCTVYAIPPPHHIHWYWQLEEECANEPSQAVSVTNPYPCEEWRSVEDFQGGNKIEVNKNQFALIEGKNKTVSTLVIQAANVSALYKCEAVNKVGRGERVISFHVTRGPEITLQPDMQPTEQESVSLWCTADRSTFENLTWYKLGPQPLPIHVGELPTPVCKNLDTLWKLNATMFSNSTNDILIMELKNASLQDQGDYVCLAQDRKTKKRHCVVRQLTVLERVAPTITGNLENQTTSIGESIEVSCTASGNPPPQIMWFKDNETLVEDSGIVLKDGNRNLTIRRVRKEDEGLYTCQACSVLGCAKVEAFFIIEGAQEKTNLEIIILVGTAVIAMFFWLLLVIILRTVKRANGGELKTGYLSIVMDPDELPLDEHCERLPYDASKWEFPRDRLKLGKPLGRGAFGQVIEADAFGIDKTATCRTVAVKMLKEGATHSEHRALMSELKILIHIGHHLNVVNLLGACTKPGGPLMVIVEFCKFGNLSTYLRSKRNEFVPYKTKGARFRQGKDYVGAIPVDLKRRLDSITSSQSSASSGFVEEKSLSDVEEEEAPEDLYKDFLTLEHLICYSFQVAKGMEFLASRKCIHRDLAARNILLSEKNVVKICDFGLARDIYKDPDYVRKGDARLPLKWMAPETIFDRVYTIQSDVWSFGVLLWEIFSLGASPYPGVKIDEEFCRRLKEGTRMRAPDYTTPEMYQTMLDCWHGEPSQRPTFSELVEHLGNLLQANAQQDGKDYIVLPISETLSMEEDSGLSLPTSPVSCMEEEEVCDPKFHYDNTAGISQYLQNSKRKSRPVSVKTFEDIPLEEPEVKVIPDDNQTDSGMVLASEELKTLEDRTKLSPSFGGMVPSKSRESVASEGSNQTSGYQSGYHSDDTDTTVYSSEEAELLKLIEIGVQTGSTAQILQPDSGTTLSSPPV

For the molecule `CN(c1ccc(NS(=O)(=O)Cc2ccccc2)cc1)c1ccnc(Nc2cccc(CS(C)(=O)=O)c2)n1`, in the test with HUVEC, half-maximal inhibition (IC50) required 350 nM.

In turn, `CN(c1ccc(NC(=O)Nc2ccccc2)cc1)c1ccnc(Nc2cccc(S(N)(=O)=O)c2)n1` returned a half-maximal inhibitory concentration (IC50) in the test on HUVEC of 2 nM. On the same count and under the same terms, with `CN(c1ccc(NC(=O)Nc2ccccc2)cc1)c1ccnc(Nc2cccc(CS(C)(=O)=O)c2)n1` the figure was 0.2 nM; with `CN(c1ccc(NC(=O)Oc2ccccc2)cc1)c1ccnc(Nc2cccc(CS(C)(=O)=O)c2)n1`, 224 nM. Same read-out and setting: as for `CN(c1ccc(NC(=O)Cc2ccccc2)cc1)c1ccnc(Nc2cccc(CS(C)(=O)=O)c2)n1`, the figure is 49 nM. Regarding `CCNC(=O)Nc1ccc(N(C)c2ccnc(Nc3ccc(CS(C)(=O)=O)cc3)n2)cc1`, the IC50 in the test on HUVEC stood at 27 nM; in test [1], 26 nM. On the same counts, the results for `CN(c1ccc(NC(=O)Nc2cc(C(F)(F)F)ccc2F)cc1)c1ccnc(Nc2ccc(S(N)(=O)=O)cc2)n1` are 8 nM and 1 nM.

In the case of `CCNC(=O)Nc1ccc(N(C)c2ccnc(Nc3cccc(CS(C)(=O)=O)c3)n2)cc1`, the IC50 was found to be 3 nM in the test with HUVEC and 17 nM in test [1]. In the test on HUVEC, `CN(c1ccc(N/C(S)=N/c2ccccc2)cc1)c1ccnc(Nc2cccc(CS(C)(=O)=O)c2)n1` gave an IC50 of 6 nM. Consider `CN(c1ccc(NC(=O)Nc2ccc(OC(F)(F)F)cc2)cc1)c1ccnc(Nc2cccc(CS(C)(=O)=O)c2)n1`, for which the IC50 in the test on HUVEC was 7 nM; in test [1], 6 nM.

Consider `CN1CCN(Cc2ccc(NC(=O)Nc3ccc(N(C)c4ccnc(Nc5ccc(CS(C)(=O)=O)cc5)n4)cc3)cc2)CC1`, for which the IC50 in the test on HUVEC worked out at 2 nM; in test [1], 4 nM.

As for `CN(C)CCNC(=O)Nc1ccc(N(C)c2ccnc(Nc3cccc(CS(C)(=O)=O)c3)n2)cc1`, the half-inhibitory concentration (IC50) in the test with HUVEC is 530 nM; in test [1], 681 nM. On the same counts, the results for `CN(c1ccc(NC(=O)NC2CCCC2)cc1)c1ccnc(Nc2cccc(CS(C)(=O)=O)c2)n1` are 1 nM and 31 nM. On the same counts, the results for `CN(c1ccc(NC(=O)Nc2cc(C(F)(F)F)ccc2F)cc1)c1ccnc(Nc2ccc(CS(C)(=O)=O)cc2)n1` are 2 nM and 2 nM. Taken in the same sequence, the figures for `CN(c1ccc(NC(=O)N2CCN(CCCN3CCOCC3)CC2)cc1)c1ccnc(Nc2ccc(CS(C)(=O)=O)cc2)n1` were 850 nM and 4490 nM. For the molecule `CCCCNC(=O)Nc1ccc(N(C)c2ccnc(Nc3cccc(CS(C)(=O)=O)c3)n2)cc1`, the figures for the 50% inhibitory concentration (IC50) (in the test with HUVEC; in test [1]) were 2 nM and 29 nM, respectively. In the case of `CN(C)CCNC(=O)Nc1ccc(N(C)c2ccnc(Nc3ccc(CS(C)(=O)=O)cc3)n2)cc1`, the half-inhibitory concentration (IC50) in the test on HUVEC was determined as 2980 nM; in test [1] it was 3110 nM. `CN(c1ccc(NC(=N)Nc2ccccc2)cc1)c1ccnc(Nc2cccc(CS(C)(=O)=O)c2)n1` yielded an IC50 in the test with HUVEC of 596 nM. For the molecule `CN(c1ccc(NC(=O)Nc2ccc(OC(F)(F)F)cc2)cc1)c1ccnc(Nc2cccc(S(N)(=O)=O)c2)n1` [GW806742X], the results for the concentration for half-maximal inhibition (IC50) (in the test with HUVEC; in test [1]) were 5 nM and 2 nM, respectively. Taken in the same sequence, the figures for `CN(c1ccc(NC(=O)NCCc2ccccc2)cc1)c1ccnc(Nc2cccc(CS(C)(=O)=O)c2)n1` were 10 nM and 11 nM. Taken in the same sequence, the figures for `CN(c1ccc(NC(=O)NCCN2CCOCC2)cc1)c1ccnc(Nc2ccc(CS(C)(=O)=O)cc2)n1` were 471 nM and 990 nM.

In the case of `CN(c1ccc(NC(=O)Nc2cc(C(F)(F)F)ccc2F)cc1)c1ccnc(Nc2cccc(S(N)(=O)=O)c2)n1`, the IC50 in the test on HUVEC was 10 nM; in test [1] it was 1 nM. On the same counts, the results for `CC(=O)c1ccc(NC(=O)Nc2ccc(N(C)c3ccnc(Nc4cccc(CS(C)(=O)=O)c4)n3)cc2)cc1` are 2 nM and 3 nM.

On to `CN(c1ccc(NC(=O)Nc2c(Cl)cccc2Cl)cc1)c1ccnc(Nc2cccc(CS(C)(=O)=O)c2)n1` [GW809897X], for which the results for the concentration for half-maximal inhibition (IC50) (in the test with HUVEC; in test [1]) were 29 nM and 65 nM, respectively.

Take `CN(c1ccc(NC(=O)Nc2ccc(OC(F)(F)F)cc2)cc1)c1ccnc(Nc2ccc(S(N)(=O)=O)cc2)n1`: the IC50 in the test on HUVEC stood at 37 nM; in test [1], 2 nM. Taken in the same sequence, the figures for `CN1CCN(C(=O)c2ccc(NC(=O)Nc3ccc(N(C)c4ccnc(Nc5ccc(CS(C)(=O)=O)cc5)n4)cc3)cc2)CC1` were 516 nM and 150 nM. On the same counts, the results for `CN(c1ccc(NC(=O)Nc2cc(C(F)(F)F)ccc2F)cc1)c1ccnc(Nc2cccc(CS(C)(=O)=O)c2)n1` are 7 nM and 35 nM.
